Data: paper PMC10178506, “Chemical and Biological Evaluation of Novel 1H-Chromeno[3,2-c]pyridine Derivatives as MAO Inhibitors Endowed with Potential Anticancer Activity” (International Journal of Molecular Sciences, 2023)
Like-named read-outs stand apart in the source and are kept apart here.

How the values were obtained:
human recombinant MAO A = target: T1, human recombinant MAO A (Homo sapiens, UniProt P21397); assay: biochemical; type: biochemical; settings: for inhibition at 10 µM: read-out: hMAO-A % inhibition at 10 μM
T1 construct: purchased Sigma Aldrich (Milan, Italy); host or cells: baculovirus-infected insect cells
T1 sequence (P21397 1-527): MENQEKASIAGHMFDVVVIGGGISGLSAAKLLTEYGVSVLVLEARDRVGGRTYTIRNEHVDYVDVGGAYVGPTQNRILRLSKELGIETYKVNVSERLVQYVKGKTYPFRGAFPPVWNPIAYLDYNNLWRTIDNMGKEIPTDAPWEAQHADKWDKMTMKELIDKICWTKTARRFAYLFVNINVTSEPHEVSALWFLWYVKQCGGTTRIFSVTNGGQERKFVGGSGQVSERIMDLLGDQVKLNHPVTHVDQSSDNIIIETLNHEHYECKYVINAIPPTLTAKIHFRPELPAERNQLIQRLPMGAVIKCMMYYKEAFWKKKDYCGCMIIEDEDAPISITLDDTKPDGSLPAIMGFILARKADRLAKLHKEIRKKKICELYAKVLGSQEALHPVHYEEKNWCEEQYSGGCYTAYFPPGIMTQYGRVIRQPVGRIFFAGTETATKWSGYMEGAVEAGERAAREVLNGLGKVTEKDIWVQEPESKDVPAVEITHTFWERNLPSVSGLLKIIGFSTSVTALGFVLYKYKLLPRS
Protocol: (§1) Human isoforms of MAOs (from baculovirus-infected insect cells) and ChEs (human recombinant AChE and BChE from human serum), purchased from Sigma Aldrich (Milan, Italy), were used for inhibition assays. Experiments were performed in 96-well plates (Greiner Bio-One, Kremsmünster, Austria) on the Infinite M1000 Pro plate reader (Tecan, Cernusco s.N., Italy), using already published protocols.
After the addition of human recombinant MAO A (250 U/mg) or MAO B (59 U/mg) and a further 30 min of incubation, NaOH was added, and the fluorescence read at 310/400 nm excitation/emission wavelength. […] IC50 is expressed as mean ± SD of three independent measurements, each one performed in duplicate. For the kinetic study on the inhibition mechanism of MAO B, three diverse scalar concentrations of the inhibitor and seven concentrations of kynuramine were used.
(§2) The IC50 values, Michaelis–Menten curve fitting and inhibition constant (Ki) were calculated by nonlinear regression, using Prism software.

human recombinant MAO B = target: T2, human recombinant MAO B (Homo sapiens, UniProt P27338); assay: biochemical; type: biochemical; settings: for inhibition at 10 µM: read-out: hMAO-B % inhibition at 10 μM
T2 construct: purchased Sigma Aldrich (Milan, Italy); host or cells: baculovirus-infected insect cells
T2 sequence (P27338 1-520): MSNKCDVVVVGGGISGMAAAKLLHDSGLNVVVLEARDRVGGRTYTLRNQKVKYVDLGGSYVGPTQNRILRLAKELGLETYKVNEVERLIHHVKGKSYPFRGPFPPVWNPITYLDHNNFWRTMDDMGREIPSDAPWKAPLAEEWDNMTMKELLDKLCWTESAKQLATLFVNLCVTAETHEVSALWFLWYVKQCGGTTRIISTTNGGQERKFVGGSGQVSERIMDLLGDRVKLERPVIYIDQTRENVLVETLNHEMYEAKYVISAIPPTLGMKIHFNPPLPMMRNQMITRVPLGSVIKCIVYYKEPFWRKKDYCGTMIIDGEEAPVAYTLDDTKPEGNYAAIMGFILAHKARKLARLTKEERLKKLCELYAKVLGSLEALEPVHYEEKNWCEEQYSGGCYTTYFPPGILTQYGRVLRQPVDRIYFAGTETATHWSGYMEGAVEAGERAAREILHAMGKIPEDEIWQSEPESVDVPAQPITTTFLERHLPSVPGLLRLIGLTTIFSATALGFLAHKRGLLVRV

BChE from human serum = target: T3, BChE from human serum (Homo sapiens, UniProt P06276); assay: biochemical; settings: for hBChE % inhibition at 10 μM / inhibition at 10 µM: 10 μM concentration, mean ± S.D. (n = 3), n.i. = no inhibition at 10 μM; for inhibition at 10 µM: read-out: hBChE % inhibition at 10 μM
T3 construct: ChEs (human recombinant AChE and BChE from human serum), purchased from Sigma Aldrich (Milan, Italy); purchased Sigma Aldrich (Milan, Italy); host or cells: human serum (natural source)
Protocol: as §1
(§3) The inhibition of human recombinant AChE or BChE from human serum was determined by applying Ellman’s spectrophotometric method as described in previously reported protocols. The AChE activity was determined in an assay solution containing AChE (0.09 U/mL), 5,5′-dithiobis(2-nitrobenzoic acid) (i.e., the Ellman’s reagent, 0.33 mM), the test compound (10 μM concentration, or seven scalar concentrations for compounds achieving > 60% enzyme inhibition at 10 μM), in 0.1 M PBS pH 8.0. […] The BChE inhibitory activity was similarly determined by using BChE (0.09 U/mL) and butyrylthiocholine iodide (5 μM) as the substrate.
as §2

human recombinant AChE = target: T4, human recombinant AChE (Homo sapiens, UniProt P22303); assay: biochemical; settings: for inhibition at 10 µM: read-out: hAChE % inhibition at 10 μM
T4 construct: purchased Sigma Aldrich (Milan, Italy)
Protocol: as §1, §3, §2

[1] = test system: SK-OV-3, human ovarian carcinoma with intrinsic resistance to cisplatin; assay: Antiproliferative activity, sulforhodamine-B (SRB) assay, SK-OV-3; type: cell-based; settings: read-out: Antiproliferative activity IC50, SK-OV-3
Protocol: (§4) The SK-OV-3 ovarian cancer cell line, MCF-7 breast cancer line and HCT-116 colon cancer cell line were obtained from the National Cancer Institute, Biological Testing Branch (Frederick, MD, USA), and maintained in the logarithmic phase at 37 °C in a 5% CO2 humidified air in RPMI 1640 medium supplemented with 10% fetal calf serum, 2 mM glutamine, penicillin (100 U/mL) and streptomycin (0.1 mg/mL).
(§5) The growth inhibitory effects of compounds under investigation were compared to those of cisplatin (CDDP) and doxorubicin (DXR), used as positive controls, and evaluated by using the sulforhodamine-B (SRB) assay. Briefly, cells were seeded into 96-well microtiter plates in 100 µL of the appropriate culture medium at plating densities at 2500, 5000 and 8000 cells/well for MCF-7, HCT-116 and SKOV-3, respectively, depending upon the doubling time of individual cell lines. After seeding, microtiter plates were incubated at 37 °C for 24 h before adding the test compounds. After 24 h, several samples of each cell line were fixed in situ with cold trichloroacetic acid (TCA) to represent a measurement of the cell population at the time of compound addition. The test compounds were freshly dissolved in dimethyl sulfoxide (DMSO, 10^−2 M) and gradually diluted to different concentrations (0.79–50 µM) with a complete medium, so that the maximum DMSO/well ratio was 0.5% v/v. After the addition of different compound concentrations to triplicate wells, the plates were further incubated at 37 °C for 72 h. Cells were fixed in situ by the gentle addition of 50 µL of cold 50% w/v TCA (final concentration 10%) and incubated for 1 h at 4 °C. The supernatant was discarded, and the plates were washed with tap water and air-dried. SRB solution (100 µL) at 0.4% (w/v) in 1% acetic acid was added to each well, and the plates were incubated for 30 min at room temperature. After staining, the unbound dye was removed by washing with 1% acetic acid and the plates were air-dried. The bound stain was then solubilized with 10mM Trizma base and the absorbance was read on an automatic plate reader at 570 nm.

[2] = test system: MCF-7, human breast carcinoma cell; assay: Antiproliferative activity, sulforhodamine-B (SRB) assay, MCF-7; type: cell-based; settings: read-out: Antiproliferative activity IC50, MCF-7
Protocol: as §4, §5

[3] = test system: HCT116, colon cancer cell line; assay: Antiproliferative activity, sulforhodamine-B (SRB) assay, HCT116; type: cell-based, human; settings: 72 h exposure, SRB assay, mean ± S.D., >50 = less than 50% growth inhibition at 50 μM, read-out: Antiproliferative activity IC50, HCT116
Protocol: as §4, §5

[4] = 72 h exposure, SRB assay, mean ± S.D., >50 = less than 50% growth inhibition at 50 μM

T3 sequence (P06276 29-602): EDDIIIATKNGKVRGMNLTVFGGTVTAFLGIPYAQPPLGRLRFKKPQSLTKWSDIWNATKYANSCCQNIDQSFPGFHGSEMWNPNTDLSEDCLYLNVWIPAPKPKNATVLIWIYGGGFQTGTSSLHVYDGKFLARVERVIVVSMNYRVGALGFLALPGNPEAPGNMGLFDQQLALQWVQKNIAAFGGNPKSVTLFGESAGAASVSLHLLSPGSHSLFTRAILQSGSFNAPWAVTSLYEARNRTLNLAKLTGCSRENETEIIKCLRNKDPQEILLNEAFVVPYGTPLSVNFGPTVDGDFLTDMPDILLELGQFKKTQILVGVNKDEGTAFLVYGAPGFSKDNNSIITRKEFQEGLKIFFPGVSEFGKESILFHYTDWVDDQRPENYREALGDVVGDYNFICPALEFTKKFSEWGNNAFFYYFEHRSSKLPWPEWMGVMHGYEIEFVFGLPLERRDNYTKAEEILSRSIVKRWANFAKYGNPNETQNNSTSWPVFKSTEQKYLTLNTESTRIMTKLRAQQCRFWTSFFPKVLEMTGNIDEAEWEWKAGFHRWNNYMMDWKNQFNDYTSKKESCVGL
T4 sequence (P22303 32-614): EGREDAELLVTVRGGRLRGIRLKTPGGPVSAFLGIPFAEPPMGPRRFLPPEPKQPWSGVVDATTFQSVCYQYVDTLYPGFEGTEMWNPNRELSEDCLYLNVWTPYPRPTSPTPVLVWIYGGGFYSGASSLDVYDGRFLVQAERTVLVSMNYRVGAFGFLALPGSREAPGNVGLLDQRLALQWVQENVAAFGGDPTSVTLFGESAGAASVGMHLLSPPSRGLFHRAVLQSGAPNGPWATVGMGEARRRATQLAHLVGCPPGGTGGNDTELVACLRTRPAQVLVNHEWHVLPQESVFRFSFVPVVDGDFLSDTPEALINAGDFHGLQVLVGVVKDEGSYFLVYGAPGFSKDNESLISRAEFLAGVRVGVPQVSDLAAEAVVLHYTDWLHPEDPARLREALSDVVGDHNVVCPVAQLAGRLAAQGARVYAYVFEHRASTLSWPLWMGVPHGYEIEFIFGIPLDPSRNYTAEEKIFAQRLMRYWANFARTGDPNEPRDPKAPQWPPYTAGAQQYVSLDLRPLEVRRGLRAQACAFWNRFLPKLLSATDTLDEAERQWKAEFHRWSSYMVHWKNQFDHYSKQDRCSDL

Compound | inhibition at 10 µM (human recombinant MAO A) | inhibition at 10 µM (human recombinant MAO B) | hBChE % inhibition at 10 μM (BChE from human serum) | inhibition at 10 µM (human recombinant AChE) | other results
CN1CC[C@@]2(O)Oc3ccccc3[C@@H](O)[C@H]2C1 (relative stereo) [7a, (4aR*,10S*,10aR*)-2-Methyl-1,2,3,4,10,10a-hexahydro-4aH-chromeno[3,2-c]pyridine-4a,10-diol] | 14% | 22% | n.i. | 24% | 
CN1CC[C@@]2(O)Oc3ccc(Br)cc3[C@@H](O)[C@H]2C1 (relative stereo) [7c, (4aR*,10S*,10aR*)-8-Bromo-2-methyl-1,2,3,4,10,10a-hexahydro-4aH-chromeno[3,2-c]pyridine-4a,10-diol] | 21% | 35% |  |  | inhibition at 10 µM (BChE from human serum): 12%; hAChE % inhibition at 10 μM (human recombinant AChE): n.i.
CCOc1cccc2c1O[C@]1(O)CCN(C)C[C@@H]1[C@@H]2O (relative stereo) [7e, (4aR*,10S*,10aR*)-6-Ethoxy-2-methyl-1,2,3,4,10,10a-hexahydro-4aH-chromeno[3,2-c]pyridine-4a,10-diol] | 19% | 25% | n.i. |  | hAChE % inhibition at 10 μM (human recombinant AChE): n.i.
CN1CC[C@@]2(O)Oc3ccccc3[C@@H](O)[C@@H]2C1 (relative stereo) [8a, (4aR*,10S*,10aS*)-2-Methyl-1,2,3,4,10,10a-hexahydro-4aH-chromeno[3,2-c]pyridine-4a,10-diol] | 8% | 42% | n.i. | 22% | 
CN1CC[C@@]2(O)Oc3ccc(Br)cc3[C@@H](O)[C@@H]2C1 (relative stereo) [8c, (4aR*,10S*,10aS*)-8-Bromo-2-methyl-1,2,3,4,10,10a-hexahydro-4aH-chromeno[3,2-c]pyridine-4a,10-diol] | 14% | 15% | n.i. | 45% | 
O[C@@H]1c2ccccc2O[C@]2(O)CCN(Cc3ccccc3)C[C@@H]12 (relative stereo) [8e, (4aR*,10S*,10aS*)-2-Benzyl-1,2,3,4,10,10a-hexahydro-4aH-chromeno[3,2-c]pyridine-4a,10-diol] | 12% | 41% |  | 25% | inhibition at 10 µM (BChE from human serum): 19%
CN1CCc2oc3ccccc3c(=O)c2C1 [1a, 1,2,3,4-tetrahydro-2-methylchromeno[3,2-c]pyridin-10-one] | 15% | 29% | n.i. | 34% | 
CN1CC=C2Oc3ccc(Cl)cc3C=C2C1 [2a, 8-Chloro-2,3-dihydro-2-methyl-1H-chromeno[3,2-c]pyridine] |  | 45% | n.i. | 25% | IC50 ([1]; Homo sapiens, SK-OV-3, 72 h): > 50 µM; IC50 (human recombinant MAO A): 1.18 ± 0.07 µM; Selectivity for MAO A over MAO B (human recombinant MAO A; from MAO A and MAO B inhibition data): about tenfold; IC50 ([2]; Homo sapiens, MCF7, 72 h): 48.1 ± 4.21 µM
CN1C=Cc2oc3ccccc3c(=O)c2C1C#Cc1ccccc1 (centres unmarked) [3a, 2-Methyl-1-(phenylethinyl)-1H-chromeno[3,2-c]pyridine-10(2H)-one] | 35% |  |  |  | MAO B/A selectivity (human recombinant MAO B; from MAO B and MAO A inhibition data): more than twentyfold; IC50 (human recombinant MAO B; hMAO-B IC50, mean ± S.D., determined for compounds with more than 60% inhibition at 10 μM): 0.51 ± 0.021 µM; IC50 (BChE from human serum; mean ± S.D., determined for compounds with more than 60% inhibition at 10 μM, read-out: hBChE IC50): 8.42 ± 0.25 µM; IC50 (human recombinant AChE; mean ± S.D., determined for compounds with more than 60% inhibition at 10 μM, read-out: hAChE IC50): 6.79 ± 0.42 µM
CCOc1cccc2c(=O)c3c(oc12)C=CN(C(C)C)C3C#Cc1ccccc1 (centres unmarked) [3d, 6-Ethoxy-2-isopropyl-1-(phenylethynyl)-1,2-dihydro-10H-chromeno[3,2-c]pyridin-10-one] | 36% | 22% |  |  | inhibition at 10 µM (BChE from human serum): 10%; hAChE % inhibition at 10 μM (human recombinant AChE): n.i.
N.N.[Cl][Pt][Cl] [Cisplatin, reference compound] |  |  |  |  | IC50 [1, 4]: 4.43 ± 0.32 µM; IC50 [3]: 5.02 ± 2.12 µM; IC50 [2, 4]: 4.8 ± 2.2 µM
COc1cccc2c1C(=O)c1c(O)c3c(c(O)c1C2=O)C[C@@](O)(C(=O)CO)C[C@@H]3O[C@H]1C[C@H](N)[C@H](O)[C@H](C)O1 [Doxorubicin, doxorubicin, reference compound] |  |  |  |  | IC50 ([1]; Homo sapiens, SK-OV-3, 72 h, 72 h exposure, SRB assay, mean ± S.D., >50 = less than 50% growth inhibition at 50 μM): 2.2 ± 0.02 µM; IC50 ([3]; Homo sapiens, HCT-116): 0.38 ± 0.03 µM; IC50 ([2]; Homo sapiens, MCF7, 72 h exposure, SRB assay, mean ± S.D., >50 = less than 50% growth inhibition at 50 μM): 0.18 ± 0.02 µM
